Experimental data published in ChEMBL document CHEMBL1201862, “PubChem BioAssay data set” (2004).
Activity calls are given as the source filed them. Rule as the data show it, for most assays here: actives have a measured EC50 and inactives only a lower limit.

Key:
Perilipin-1/ABHD5 = Perilipin-1/ABHD5 (Homo sapiens, UniProt O60240+Q8WTS1); test: Luminescence-based biochemical high throughput dose response assay for inhibitors of the interaction of the lipase co-activator protein, abhydrolase domain containing 5 (ABHD5) with perilipin-1 (PLIN1) (2K validation set). [Related pubchem assays (depositor defined):AID493027, AID493057]
Chain of Perilipin-1/ABHD5 (Q8WTS1 whole entry, the tested form may be a part): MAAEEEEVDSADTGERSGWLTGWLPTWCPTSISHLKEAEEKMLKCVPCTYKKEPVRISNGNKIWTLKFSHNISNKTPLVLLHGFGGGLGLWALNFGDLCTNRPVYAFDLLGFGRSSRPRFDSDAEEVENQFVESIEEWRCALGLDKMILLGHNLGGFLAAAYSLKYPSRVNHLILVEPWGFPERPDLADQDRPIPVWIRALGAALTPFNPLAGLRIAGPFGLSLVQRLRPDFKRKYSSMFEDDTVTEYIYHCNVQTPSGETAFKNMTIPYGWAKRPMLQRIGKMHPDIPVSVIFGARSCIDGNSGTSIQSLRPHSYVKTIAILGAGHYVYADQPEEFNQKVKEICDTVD
Chain of Perilipin-1/ABHD5 (O60240 whole entry, the tested form may be a part): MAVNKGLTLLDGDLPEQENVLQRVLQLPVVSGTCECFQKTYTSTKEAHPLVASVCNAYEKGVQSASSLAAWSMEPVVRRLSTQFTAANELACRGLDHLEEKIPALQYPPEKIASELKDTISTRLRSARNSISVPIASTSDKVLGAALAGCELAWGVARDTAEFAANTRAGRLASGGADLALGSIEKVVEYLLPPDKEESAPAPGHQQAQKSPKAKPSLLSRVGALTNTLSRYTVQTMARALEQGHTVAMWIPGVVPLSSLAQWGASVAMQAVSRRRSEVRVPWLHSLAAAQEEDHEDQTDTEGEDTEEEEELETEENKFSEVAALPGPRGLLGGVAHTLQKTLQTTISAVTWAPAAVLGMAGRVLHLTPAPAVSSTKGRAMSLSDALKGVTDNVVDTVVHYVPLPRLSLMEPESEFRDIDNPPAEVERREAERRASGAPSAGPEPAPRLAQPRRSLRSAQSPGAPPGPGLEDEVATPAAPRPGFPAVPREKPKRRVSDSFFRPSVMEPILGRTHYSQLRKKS

[1] = target: 1-acylglycerol-3-phosphate O-acyltransferase ABHD5/Perilipin-5 (Homo sapiens, UniProt Q00G26+Q8WTS1); test: Luminescence-based biochemical high throughput dose response assay for inhibitors of the interaction of the lipase co-activator protein, abhydrolase domain containing 5 (ABHD5) with perilipin-5 (MLDP; PLIN5) (2K validation set). [Related pubchem assays (depositor defined):AID493035, AID493241]
Chain of 1-acylglycerol-3-phosphate O-acyltransferase ABHD5/Perilipin-5 (Q00G26 whole entry, the tested form may be a part): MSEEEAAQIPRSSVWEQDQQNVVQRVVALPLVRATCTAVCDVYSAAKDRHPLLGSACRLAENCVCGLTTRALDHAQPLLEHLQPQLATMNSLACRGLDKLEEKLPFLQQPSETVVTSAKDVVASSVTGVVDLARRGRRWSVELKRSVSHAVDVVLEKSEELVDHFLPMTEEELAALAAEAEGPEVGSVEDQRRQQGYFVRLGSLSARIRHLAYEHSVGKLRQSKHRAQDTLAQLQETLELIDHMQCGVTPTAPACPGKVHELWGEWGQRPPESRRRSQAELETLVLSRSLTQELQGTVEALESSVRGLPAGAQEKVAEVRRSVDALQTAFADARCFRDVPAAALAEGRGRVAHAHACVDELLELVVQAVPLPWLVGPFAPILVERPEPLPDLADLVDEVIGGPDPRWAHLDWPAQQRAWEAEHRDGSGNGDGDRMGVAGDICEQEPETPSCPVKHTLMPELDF
Chain of 1-acylglycerol-3-phosphate O-acyltransferase ABHD5/Perilipin-5 (Q8WTS1 whole entry, the tested form may be a part): as the sequence (Q8WTS1 whole entry, the tested form may be a part) above

[2] = target: Induced myeloid leukemia cell differentiation protein Mcl-1 (Homo sapiens, UniProt Q07820); type: functional
Chain of Induced myeloid leukemia cell differentiation protein Mcl-1 (Q07820 whole entry): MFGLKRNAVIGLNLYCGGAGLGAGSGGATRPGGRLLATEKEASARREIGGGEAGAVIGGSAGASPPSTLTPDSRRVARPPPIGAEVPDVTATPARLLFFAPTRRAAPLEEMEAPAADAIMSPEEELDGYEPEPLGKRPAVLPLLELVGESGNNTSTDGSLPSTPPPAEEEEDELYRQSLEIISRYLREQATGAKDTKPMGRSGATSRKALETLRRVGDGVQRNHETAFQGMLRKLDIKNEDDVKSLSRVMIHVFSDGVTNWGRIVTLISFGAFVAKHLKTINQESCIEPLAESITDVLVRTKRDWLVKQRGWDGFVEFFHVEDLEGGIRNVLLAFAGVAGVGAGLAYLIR

[3] = cytotoxicity toward DRD oncogenic fibroblasts, dose response, cell-based, non-viral oncogenic, luminescence (AID 1934); type: functional; settings: Homo sapiens
[4] = Luminescence Cell-Based Dose Response HTS to Identify Inhibitors of 5'UTR Stem-Loop Driven Prion Protein mRNA Translation in H4 Neuroglioblastoma Cells. [Related pubchem assays: 1827 (Project Summary), 1813 (Primary HTS)]; type: functional
Exodeoxyribonuclease V = Exodeoxyribonuclease V (Escherichia coli (strain K12), UniProt P04993+P07648+P08394); test: E. coli RecBCD inhibitors, dose response, counter-screen for AddAB inhibitor project, absorbance, V66 E. coli, mutant T4 phage (AID 492957); type: functional, cell-based, Escherichia coli str. K-12 substr. MG1655
BJ [5] = test: cytotoxicity toward BJ-TERT-LT-ST fibroblasts, dose response, cell-based, RAS-independent, luminescence (AID 1935); type: functional; settings: Homo sapiens;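 also: BJ fibroblasts immortalized with TERT plus LT and ST oncogenes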
BJ [6] = test: cells; type: functional, cell-based; settings: Homo sapiens
[7] = target: T1, Heat shock factor protein 1 (Mus musculus, UniProt P38532); test: HSF1 potentiators in luciferase reporter cells, confirmation, cell-based, NIH3T3, luminescence, dose retest (AID 435004); type: functional;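 also: stress induced by proteasome inhibitor MG132 added 30 min after compound; luciferase reporter driven by HSF1 response element in NIH3T3 cells; actives raise luminescence as potentiators of the MG132 stress response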
T1 sequence (P38532 whole entry): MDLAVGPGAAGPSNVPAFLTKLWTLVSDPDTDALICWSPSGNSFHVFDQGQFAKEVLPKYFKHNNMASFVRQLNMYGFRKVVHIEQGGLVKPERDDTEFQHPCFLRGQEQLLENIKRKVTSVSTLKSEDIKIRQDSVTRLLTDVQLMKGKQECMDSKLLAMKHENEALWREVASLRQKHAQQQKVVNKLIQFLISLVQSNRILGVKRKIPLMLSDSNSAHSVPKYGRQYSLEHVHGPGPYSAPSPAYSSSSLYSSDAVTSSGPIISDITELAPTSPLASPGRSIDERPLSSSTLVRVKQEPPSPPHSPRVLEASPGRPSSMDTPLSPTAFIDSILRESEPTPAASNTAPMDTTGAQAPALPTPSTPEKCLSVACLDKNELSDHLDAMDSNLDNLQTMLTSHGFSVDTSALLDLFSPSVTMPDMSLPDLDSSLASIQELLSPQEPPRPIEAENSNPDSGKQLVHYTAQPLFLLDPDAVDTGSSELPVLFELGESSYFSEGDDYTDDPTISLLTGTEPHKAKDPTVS

Beta-galactosidase = Beta-galactosidase (Escherichia coli, UniProt Q8VNN2); type: functional
Chain of Beta-galactosidase (Q8VNN2 whole entry): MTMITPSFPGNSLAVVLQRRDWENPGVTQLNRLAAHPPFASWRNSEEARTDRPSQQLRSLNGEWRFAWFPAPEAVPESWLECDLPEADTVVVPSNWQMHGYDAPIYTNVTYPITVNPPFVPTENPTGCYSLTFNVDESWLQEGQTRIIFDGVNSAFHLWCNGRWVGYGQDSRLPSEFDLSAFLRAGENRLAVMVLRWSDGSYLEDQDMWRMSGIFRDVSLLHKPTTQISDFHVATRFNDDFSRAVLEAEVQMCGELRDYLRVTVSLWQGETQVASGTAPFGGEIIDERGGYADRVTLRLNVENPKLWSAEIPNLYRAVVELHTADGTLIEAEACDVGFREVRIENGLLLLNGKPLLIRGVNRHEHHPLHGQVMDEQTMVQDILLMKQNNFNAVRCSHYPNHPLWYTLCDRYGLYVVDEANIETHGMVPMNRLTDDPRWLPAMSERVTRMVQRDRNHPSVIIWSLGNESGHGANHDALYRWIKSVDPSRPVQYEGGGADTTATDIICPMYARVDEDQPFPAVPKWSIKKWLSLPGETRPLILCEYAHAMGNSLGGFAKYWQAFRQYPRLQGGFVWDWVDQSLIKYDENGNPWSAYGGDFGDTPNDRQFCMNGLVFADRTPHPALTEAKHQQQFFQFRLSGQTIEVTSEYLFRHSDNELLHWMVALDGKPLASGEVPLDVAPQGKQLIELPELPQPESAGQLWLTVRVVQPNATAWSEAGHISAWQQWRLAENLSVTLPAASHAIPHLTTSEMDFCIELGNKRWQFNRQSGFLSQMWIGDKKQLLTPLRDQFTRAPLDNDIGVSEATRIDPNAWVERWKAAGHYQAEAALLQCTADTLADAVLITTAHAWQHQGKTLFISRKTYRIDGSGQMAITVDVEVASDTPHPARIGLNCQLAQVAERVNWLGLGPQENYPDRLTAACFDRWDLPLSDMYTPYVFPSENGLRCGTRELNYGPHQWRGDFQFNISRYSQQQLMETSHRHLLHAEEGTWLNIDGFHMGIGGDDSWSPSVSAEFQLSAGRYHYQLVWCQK

cells [8] = type: functional, cell-based
cells [9] = type: functional, cell-based; remark: listed apart in the source
[10] = target: T2, Kappa-type opioid receptor (Homo sapiens, UniProt P41145); type: functional
T2 sequence (P41145 whole entry): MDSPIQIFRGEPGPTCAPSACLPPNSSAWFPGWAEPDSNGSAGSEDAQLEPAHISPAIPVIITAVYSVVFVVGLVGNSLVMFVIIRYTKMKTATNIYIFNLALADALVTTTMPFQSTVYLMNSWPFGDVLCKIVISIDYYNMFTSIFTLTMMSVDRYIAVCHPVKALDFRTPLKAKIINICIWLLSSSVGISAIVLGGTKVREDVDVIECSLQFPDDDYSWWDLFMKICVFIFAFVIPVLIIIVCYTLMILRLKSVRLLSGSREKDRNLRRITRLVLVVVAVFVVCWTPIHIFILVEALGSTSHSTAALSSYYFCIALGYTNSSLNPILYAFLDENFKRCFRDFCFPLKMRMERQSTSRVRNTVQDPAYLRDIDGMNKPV

Ephrin type-A receptor 4 = Ephrin type-A receptor 4 (Mus musculus, UniProt Q03137); test: inhibitors of EphA4 binding to KYL peptide, primary screen, biochemical, colorimetric, mouse EphA4 (AID 689); type: functional
Chain of Ephrin type-A receptor 4 (Q03137 whole entry): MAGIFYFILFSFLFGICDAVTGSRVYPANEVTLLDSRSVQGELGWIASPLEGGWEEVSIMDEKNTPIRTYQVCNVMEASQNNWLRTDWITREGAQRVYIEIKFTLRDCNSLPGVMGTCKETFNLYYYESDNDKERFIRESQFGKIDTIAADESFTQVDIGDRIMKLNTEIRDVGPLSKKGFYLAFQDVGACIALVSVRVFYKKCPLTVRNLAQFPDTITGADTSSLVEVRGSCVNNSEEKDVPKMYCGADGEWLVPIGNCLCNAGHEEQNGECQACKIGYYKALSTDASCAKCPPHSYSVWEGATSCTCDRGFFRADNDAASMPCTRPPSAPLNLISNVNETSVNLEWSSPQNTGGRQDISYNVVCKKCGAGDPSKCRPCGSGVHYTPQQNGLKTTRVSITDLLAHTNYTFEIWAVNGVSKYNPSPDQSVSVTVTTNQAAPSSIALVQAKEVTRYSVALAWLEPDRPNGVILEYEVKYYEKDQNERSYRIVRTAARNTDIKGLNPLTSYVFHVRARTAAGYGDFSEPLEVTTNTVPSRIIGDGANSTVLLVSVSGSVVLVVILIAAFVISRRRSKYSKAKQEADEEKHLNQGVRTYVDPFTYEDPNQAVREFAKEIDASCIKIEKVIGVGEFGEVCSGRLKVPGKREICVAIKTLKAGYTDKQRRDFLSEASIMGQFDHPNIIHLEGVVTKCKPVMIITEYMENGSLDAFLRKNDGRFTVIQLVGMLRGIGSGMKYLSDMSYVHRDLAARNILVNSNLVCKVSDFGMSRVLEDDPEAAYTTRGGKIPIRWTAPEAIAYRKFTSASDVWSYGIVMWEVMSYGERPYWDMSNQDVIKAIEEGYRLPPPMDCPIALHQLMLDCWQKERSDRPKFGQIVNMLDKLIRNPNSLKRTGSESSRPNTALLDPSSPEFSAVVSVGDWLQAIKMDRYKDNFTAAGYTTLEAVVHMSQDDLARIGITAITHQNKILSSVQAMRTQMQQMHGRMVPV

[11] = target: T2, Kappa-type opioid receptor; type: functional; remark: listed apart in the source
INS1 = test: beta cell apoptosis inhibitors, cytokine rescue, dose response, luminescence, retest (AID 449756); type: functional, cell-based; settings: Rattus norvegicus;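 also: cell death triggered by IL-1 beta plus TNF-alpha plus IFN-gamma mixture; protective hits raise ATP signal compared with cytokine alone wells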
Streptokinase A = target: T3, Streptokinase A (Streptococcus pyogenes serotype M1, UniProt P10520); test: S. pyogenes streptokinase expression inhibitors, potency, dose response, plasminogen activation absorbance, OD405 (AID 1914); type: functional, Streptococcus pyogenes M1 GAS;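 also: secreted streptokinase activity via plasminogen activation per viability signal from cell pellet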
T3 sequence (P10520 whole entry): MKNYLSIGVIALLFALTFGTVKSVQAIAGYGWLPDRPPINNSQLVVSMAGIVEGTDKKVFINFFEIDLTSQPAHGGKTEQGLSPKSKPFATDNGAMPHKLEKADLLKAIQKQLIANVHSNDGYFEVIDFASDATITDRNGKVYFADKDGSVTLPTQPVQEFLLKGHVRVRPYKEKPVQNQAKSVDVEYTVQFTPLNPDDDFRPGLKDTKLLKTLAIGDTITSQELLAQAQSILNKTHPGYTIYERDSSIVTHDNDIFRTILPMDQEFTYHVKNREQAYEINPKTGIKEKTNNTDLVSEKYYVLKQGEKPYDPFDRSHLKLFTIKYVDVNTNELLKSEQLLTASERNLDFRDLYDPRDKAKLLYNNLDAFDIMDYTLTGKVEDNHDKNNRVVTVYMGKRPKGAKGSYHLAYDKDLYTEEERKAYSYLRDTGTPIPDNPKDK

[12] = Counterscreen for AddAB inhibitors: absorbance-based bacterial cell-based high throughput dose response assay for inhibitors of bacterial viability. [Related pubchem assays (depositor defined):AID435030, AID449728, AID449731, AID488942, AID488955, AID488956]; type: functional
[13] = system: Streptococcus sp. 'group A'; test: growth inhibition of control SK(-) GAS strain, dose response, counter-screen for streptokinase expression inhibitor project, luminescence, kanamycin, BacTiterGlo, confirmation (AID 1900); type: functional, organism-based
Streptococcus = test: Group A Streptococcus viability loss, dose response, counter-screen for streptokinase expression inhibitor project, luminescence, BacTiterGlo (AID 1915); type: functional, organism-based;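 also: potency for reduction of bacterial viability or growth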
BJ [14] = test: cytotoxicity toward BJ-TERT fibroblasts, dose response, cell-based, RAS-independent, luminescence (AID 1933); type: functional; settings: Homo sapiens
BJ [15] = test: cytotoxicity toward Ras-transformed BJeLR fibroblasts, dose response, cell-based, alamar blue fluorescence, cherrypicked samples (AID 2631); type: functional; settings: Homo sapiens;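 also: confirmatory dose-response assay in RAS-dependent BJ fibroblasts engineered with TERT, LT and ST, with cytotoxicity read by fluorescence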
[16] = inhibitors of SNCA 5'UTR-driven reporter translation, confirmation, H4 neuroglioma cells, luminescence (AID 1988); type: functional, cell-based

## COC(=O)c1cc(-c2ccc(C)o2)nc2ccccc12
Perilipin-1/ABHD5
  IC50: 8.68 µM (active)
[1]
  IC50: 8.7 µM (active)
[2]
  IC50: 18 µM (active)

## Oc1c(N=Nc2ccccn2)ccc2ccccc12
[3]
  EC50: 3.59 µM (active)
[4]
  EC50: 9.75 µM (active)
Exodeoxyribonuclease V
  IC50: > 119 µM (inactive)
BJ [5]
  EC50: 2.99 µM (inconclusive)
BJ [6]
  EC50: 2.76 µM (inconclusive)
[7]
  EC50: 9.82 µM (active)
Beta-galactosidase
  EC50: 14.5 µM (active)
Cells [8]
  EC50: 6.46 µM (active)
Cells [9]
  EC50: > 350 µM (not active)
[10]
  IC50: > 32 µM
Ephrin type-A receptor 4
  IC50: 13.8 µM (active)
[11]
  IC50: 2.32 µM (active)
INS1
  AC50: 0.375 µM (active)
Streptokinase A
  EC50: > 150 µM (not active)
[12]
  IC50: > 119 µM (inactive)
[13]
  EC50: 2.67 µM (active)
Streptococcus
  EC50: 25.1 µM (active)
BJ [14]
  EC50: 2.8 µM (active)
BJ [15]
  EC50: 2.84 µM (active)
[16]
  EC50: 7.46 µM (active)
